Columns and labels:
[1] = test system: BVDV; assay: Two-way combination inhibition-of-CPE assay, BVDV-infected MDBK cells, MOI 0.05 (Example 5); type: cell-based, bovine viral diarrhea virus; conditions: read-out: EC50 protection of MDBK cells from BVDV-induced cytotoxicity
Protocol: (§1) Each two-way combination was performed twice.
Individual potencies (EC50) of each of the drugs for inhibition of BVDV-induced cytopathic effects in MDBK cells were determined for each combination experiment (see Table 9).

[2] = in vitro; conditions: bovine
Protocol: MDBK cells were seeded into 96-well plates at a density of approximately 2×10^4 cells per well. The cultures were incubated 3-24 hours to permit attachment of the cells to the plates prior to infection and addition of compounds. […] The mean absorbance in each set of triplicate wells was determined. Antiviral activity was measured as MTS conversion relative to the differential between the conversion for cell (non-infected) and viral (non-drug-treated) controls.

[3] = test system: BVDV strain NADL; assay: Inhibition of BVDV release from MDBK cells; type: cell-based; conditions: Bovine viral diarrhea virus isolates and strains, MOI about 0.01, 24 hours
Protocol: The cell cultures were incubated 3-24 hours to allow attachment of the cells to the tissue culture plates prior to infection and addition of compounds. The appropriate number of plaque forming units (PFU) of BVDV strain NADL (ATCC VR-534) diluted in sterile PBS containing 1% HS were added to each well to achieve the desired multiplicity of infection (MOI) (about 0.01). The cells were exposed to the virus at 37° C., 5% CO2 for 1.5 hours, and then washed with PBS. The test compounds, dissolved in cell growth media with 2% HS, were then added to the cells at varying concentrations. The plates were incubated at 37° C., 5% CO2 for 24 hours (one cycle of BVDV replication). The 96-well plates were then centrifuged at low speed to pellet the cells. The supernatant was serially diluted and used to infect a new monolayer of cells in 12-well plates. The cell monolayer was then overlaid with 0.5% agarose dissolved in cell growth media with 5% HS containing (1) castanospermine (Phytex, Australia); (2) ribavirin (Ribavirin, Sigma); (3) IFN-α2b (PBL Biomedical Laboratories, Piscataway, N.J.); or (4) alone (i.e., no added test compound). The treated cells were incubated for 3 to 5 days at 37° C. under 5% CO2, fixed with formaldehyde, stained with crystal violet or methylene blue, washed in double distilled water, and finally air dried at room temperature. Virus plaques formed were quantified by manual counting, and titer was determined.

[4] = test system: BVDV; assay: Protection of MDBK cells from BVDV-induced cytotoxicity (MTS/PMS CPE reduction); type: cell-based; conditions: Bovine viral diarrhea virus isolates and strains
Protocol: Cell proliferation assays were performed using a non-radioactive cell proliferation MTS/PMS assay (MTS: 3-(4,5-dimethylthiazol-2-yl)-5-(3-carboxymethoxy phenyl)-2-(4-sulfophenyl)-2H-tetrazolium (Promega Corporation, Madison, Wis.); PMS: phenazine methosulfate (Sigma Aldrich, St. Louis, Mo.)). MDBK cells were seeded into 96-well plates at a density of approximately 2×10^4 cells per well. The cultures were incubated 3-24 hours to permit attachment of the cells to the plates prior to infection and addition of compounds. The appropriate number of PFU of BVDV were added to each well to achieve the desired MOI (0.1 or 0.01); the cells were exposed to the virus diluted at the appropriate concentration in phosphate buffered saline (PBS) containing 1% horse serum for 1 to 2 hours. The virus inoculum was then removed and the cells were washed with PBS containing 1% HS. The test compounds, castanospermine, ribavirin, and interferon-α were dissolved in cell growth media with 2% HS and added to the cells at varying concentrations, and then incubated at 37° C. in the presence of 5% CO2 for 3-4 days. Uninfected cells and infected, untreated cells (i.e., without compound) were used as additional controls. After the 3-4 days of incubation, a combined MTS/PMS solution was added into each well assay plate containing 100 μL of cells in culture medium to obtain final concentrations of 333 μg/ml MTS and 25 μM PMS. A spectrophotometer plate reader was used to measure the absorbance at 490 nm after incubation of the 96-well plate for 1 to 4 hours at 37° C. in a humidified, 5% CO2 atmosphere. The mean absorbance in each set of triplicate wells was determined. Antiviral activity was measured as MTS conversion relative to the differential between the conversion for cell (non-infected) and viral (non-drug-treated) controls. The cytopathic effect (CPE) reduction for each concentration of the tested compound, which correlated with antiviral activity, was calculated as follows. % CPE reduction=[(D−ND)/(NI−ND)]×100, in which D (drug-treated) is the absorbance of drug-treated cells; ND (non drug-treated) is the absorbance of untreated infected cells; and NI (non-infected) is the absorbance of non-infected cells.
The EC50 represents the concentration of the drug that protects 50% of the cells from BVDV induced cytotoxicity (i.e., 50% CPE reduction). CC50 equals the concentration that affects the viability of 50% of the MDBK cells.

[5] = test system: BVDV; assay: Plaque reduction assay; type: cell-based; conditions: Bovine viral diarrhea virus isolates and strains
Protocol: The BVDV virus stock was serially diluted in phosphate buffered saline (PBS) containing 1-5% horse serum (HS). MDBK cells were grown to confluence in culture dishes and were infected at 37° C. with BVDV at various multiplicity of infection (<1 to >0.001). After 1.5 hours of adsorption, the inoculum was removed. The cell monolayer was overlaid with 0.5% agarose dissolved in cell growth media containing 5% HS with and without test compound(s) (castanospermine, ribavirin, or IFN-α). The dishes were incubated for 3 to 5 days at 37° C. under 5% CO2. The monolayer of MDBK cells was fixed with formaldehyde, stained with crystal violet or methylene blue according to standard methods, and then washed in double distilled water. Following washing, the plates air dried at room temperature. The virus plaques formed in the MDBK cell cultures were quantified by manual counting. The inhibitory activities of test compounds were determined by calculating the percent (%) reduction in plaques as follows: % reduction in plaques=[…].

[6] = CC50 in plaque reduction assay table (Example 3); type: cell-based; conditions: bovine
[7] = test system: BVDV; assay: Two-way combination inhibition-of-CPE assay, BVDV-infected MDBK cells, MOI 0.01 (MacSynergy, isobologram); type: cell-based, bovine viral diarrhea virus; conditions: for EC50: Bovine viral diarrhea virus isolates and strains, MDBK
Protocol: as §1
Initially, as was done in Example 1, individual compound potency (EC50) for inhibition of BVDV-induced cytopathic effects in MDBK cells was determined for each combination experiment (see Table 5). Minimal experiment-to-experiment variability in individual drug potency was observed.
A greater positive percent (synergy) volume is indicative of a synergistic effect. Values less than 25 μM/ml^2% or 25 μM(IU)/ml(well)^2% are insignificant; values between 25 and 50 μM/ml^2% or 25 and 50 μM(IU)/ml(well)^2% are considered minor but significant; values between 50 and 100 μM/ml^2% or μM(IU)/ml(well)^2% indicate moderate synergy that may be indicative of a significant synergistic effect in vivo; and values greater than 100 μM/ml^2% or μM(IU)/ml(well)^2% indicate strong synergy that is likely indicative of a significant synergistic effect in vivo.

[8] = Bovine viral diarrhea virus isolates and strains, MDBK
[9] = read-out: EC50 (50% CPE reduction), MOI = 0.01
[10] = read-out: EC50 (50% CPE reduction), MOI = 0.1
[11] = MOI 0.01, combination experiments, compound alone, read-out: EC50 protection from BVDV-induced cytotoxicity, individual compound

## CCCCN1C[C@H](O)[C@@H](O)[C@H](O)[C@H]1CO [NB-DNJ, N-butyl-DNJ]
[1]; MOI 0.05, individual drug
  EC50: > 500 µM

## NC12CC3CC(CC(C3)C1)C2 [Amantadine, amantadine]
[1]; [8]
  EC50: 400 µM

## O[C@H]1[C@H](O)[C@@H](O)CN2CC[C@H](O)[C@H]12 [Castanospermine, [1S-(1α,6β,7α,8β,8αβ)]-octahydro-1,6,7,8-indoli-zinetetrol]
[2]
  CC50: > 1000 µM
[1]; [8]
  EC50: > 100 µM
[3]
  EC50: 14 ± 8 µM
  EC90: 83 ± 21 µM
[4]; [9]
  EC50: 61.5 ± 15.4 µM
[4]; [10]
  EC50: 177 ± 14.5 µM
[5]
  EC50: 110 ± 82 µM
[6]
  CC50: > 1000 µM
[7]; Interferon-α2b added 0 IU/mL, read-out: Average Castanospermine EC50
  EC50: 52 µM
[7]; Interferon-α2b added 0.7 IU/mL, read-out: Average Castanospermine EC50
  EC50: 39 µM
[7]; Interferon-α2b added 2.2 IU/mL, read-out: Average Castanospermine EC50
  EC50: 19 µM
[7]; Interferon-α2b added 6.7 IU/mL, read-out: Average Castanospermine EC50
  EC50: 12 µM
[7]; Interferon-α2b added 20 IU/mL, read-out: Average Castanospermine EC50
  EC50: 1 µM
[7]; Interferon-α2b added 60 IU/mL, read-out: Average Castanospermine EC50
  EC50: < 1 µM
[7]; [11]
  EC50: 59 ± 16 µM
[7]; addition of increasing concentrations of interferon-α2b
  dose-dependent reduction in EC50 of castanospermine: > 52 fold
[7]; at 10 IU/mL of interferon-α2b
  fold reduction of castanospermine EC50 (isobologram): > 7 fold
[7]; at 20 IU/mL interferon-α2b
  fold decrease of castanospermine EC50: ~50 fold

## NC(=O)c1ncn([C@@H]2O[C@H](CO)[C@@H](O)[C@H]2O)n1 [Ribavirin, reference compound]
[2]
  CC50: 57 ± 34 µM
[3]
  EC50: 2.4 ± 2.2 µM
  EC90: 4.9 ± 1.9 µM
[4]; [9]
  EC50: 4.4 ± 2 µM
[4]; [10]
  EC50: 9 ± 1 µM
[5]
  EC50: 9.1 ± 6.3 µM
[6]; MDBK cells, Table 3, read-out: CC50
  CC50: 250 µM
[7]; [11]
  EC50: 4 ± 2 µM
[7]; at about 10 IU/mL interferon-α2b
  fold reduction of ribavirin EC50 (isobologram): > 6 fold

## Interferon-α2b
[7]; Castanospermine added 0 μM
  Average Interferon-α2b EC50: 16 IU/mL
[7]; Castanospermine added 1.2 μM
  Average Interferon-α2b EC50: 18 IU/mL
[7]; Castanospermine added 3.7 μM
  Average Interferon-α2b EC50: 13 IU/mL
[7]; Castanospermine added 11 μM
  Average Interferon-α2b EC50: 7 IU/mL
[7]; Castanospermine added 33 μM
  Average Interferon-α2b EC50: 1 IU/mL
[7]; Castanospermine added 100 μM
  Average Interferon-α2b EC50: <1 IU/mL
[7]; MOI 0.01, combination experiments, compound alone
  EC50 protection from BVDV-induced cytotoxicity, individual compound: 19 ± 6 IU/mL
[7]; at 11 μM of castanospermine
  fold decrease of interferon-α2b EC50: ~2 fold

— patent US20060093577A1, “Combination anti-viral compositions and methods of use” (priority 2004, published 2006)
